{"source": "patent US7250402B2", "about": "“Avermectin derivatives” (The Kitasato Institute, priority 2000, dated 2007)", "key": {"[1]": {"test_system": "Caenorhabditis elegans", "assay": "Antiparasitic activity against Caenorhabditis elegans in 96 well microplate (movement graded 0-3, MIC)", "type": "in vivo", "conditions": "concentration required to give Indication 2 (or 3) for caenorhabditis elegans; 20° C., observed after 24 and 48 hours", "from_the_text": "(§1) Methods for determining antiparasitic effects of the compounds disclosed according to the present invention are explained below.\n(§2) As model insects for simple determination of antiparasitic and insecticidal activities, those insects are desired which can be easily obtained and bred in laboratories, and have no pathogenicity to a human. Caenorhabditis elegans, an unparasitic eelworm widely used in experiments of genetics, was used as a typical steam worm, and artemia salina used as feed for tropical fish and named Brine shrimp, was used instead of insects.\nPreparation of Caenorhabditis elegans Used for Evaluation\nEscherichia coli for the feed of caenorhabditis elegans (mutant having uracil requirement) was inoculated in a seed medium for E. coli to which a small amount of uracil was added, and cultured with shaking at 27° C. for 1 day. A petri dish of 6 cm diameter was filled with 10 mL of an agar medium for eelworm proliferation, and the medium was solidified. Then 0.5 mL of the culture of E. coli was spread over the medium in the dish, and the dish was incubated at 37° C. to proliferate E. coli. A piece of the agar was collected with a platinum loop from a petri dish in which caenorhabditis elegans successfully proliferated, and inoculated in petri dishes in which E. coli was proliferated. The petri dishes were incubated at 20° C. to proliferate caenorhabditis elegans. Since the life of eelworm is about 2 weeks, subculture was carried out every once a week. The eelworms grown with spread on the surface of the petri dish after 3 to 5 days from subculture were used for the experiments.\n<Preparation of Agar Medium for Eelworm Proliferation>\nSolution A was obtained by dissolving 0.3% of sodium chloride, 1.7% of bact-agar (DIFCO Co.), 0.5% of bact-peptone (DIFCO Co.) and 1.0% of yeast extract (DIFCO Co.) in distilled water.\nSolution B was obtained by dissolving 0.5% of cholesterol in ethanol.\nSolution C was obtained by dissolving 13.9% of calcium chloride in distilled water.\nSolution D was obtained by dissolving 30.8% of magnesium sulfate heptahydrate in distilled water.\nSolution E was obtained by dissolving 13.54% of KH2PO4 and 4.45% of K2HPO4 in distilled water.\nThe aforementioned Solutions A, C and D were sterilized in an autoclave at 121° C. for 20 minutes, and each solution was stored at 4° C.\nThe agar medium for eelworm proliferation was prepared by mixing the solutions in the following proportion: Solution A: 100 mL, Solution B: 0.1 mL, Solution C: 0.05 mL, Solution D: 0.1 mL and Solution E: 2.5 mL (without pH adjustment), and dispensing each 10 mL portion into petri dishes of 60×15 mm.\n<Preparation of E. coli Seed Medium>\nIn distilled water, 2.0% of bact-trypton (DIFCO Co.), 0.55% of sodium chloride and 0.001% of uracil (SIGMA Co., pH 7.4) were dissolved, and the solution was sterilized in an autoclave at 121° C. for 20 minutes.\n(§3) Each well of a 96 well microplate was filled with the solution of the test compound (methanol as a solvent), and the solvent was removed using a vacuum pump, then 250 μl of the assay medium was added to each wells (the assay medium was prepared by dissolving 7.5 mM sodium hydrogencarbonate, 7.5 mM potassium chloride, 7.5 mM calcium chloride dihydrate and 7.5 mM magnesium sulfate heptahydrate in distilled water and adding 0.01% of lecithin to the solution), and then the microplate was shaken using a microplate mixer for 15 minutes. To each well, a few individuals of caenorhabditis elegans were added by softly rubbing the surface of the agar using a toothpick, or a few individuals of artemia salina were added together with 50 μl of the buffer. The microplate was incubated at 20° C., and then the insects were observed after 24 and 48 hours under a microscope (magnification of 40×). The results were compared to those obtained without addition of the test compound, and evaluated by 4 grades.\n(§4) The evaluation results were shown by indications of 4 grades from 0 to 3.\n1: A little week movements […]"}, "[2]": {"test_system": "artemia salina", "assay": "Insecticidal model activity against artemia salina (Brine shrimp) in 96 well microplate (movement graded 0-3, MIC)", "type": "in vivo", "conditions": "concentration required to give Indication 2 (or 3) for artemia salina; 20° C., observed after 24 and 48 hours", "from_the_text": "as §1, §2\n<Preparation of Artemia salina Used for Evaluation>\nTo a buffer for artemia salina (obtained by dissolving 0.24% of Tris, 2.57% of sodium chloride, 0.47% of magnesium chloride, 0.07% of potassium chloride, 0.02% of sodium carbonate, 0.64% of magnesium sulfate and 0.11% of calcium chloride in distilled water and adjusting the pH to 7.1 with hydrochloric acid), dried eggs of artemia salina [Tetra Brine Shrimp Eggs, Warner Lambert Co.] were added. The noprius larvae 1 or 2 days after hatching were used for the experiments.\nas §3, §4\n1: A little week movements\nOf the 4 grades, Indications 3 and 2 were judged as effective, and Indications 1 and 0 as ineffective. In Table 7, the values for each compound are minimum inhibitory concentrations (MIC) which were required to give Indication 2 (or 3) for caenorhabditis elegans or artemia salina. In Table 7, caenorhabditis elegans and artemia salina are abbreviated as C.E. and A.S., respectively."}}, "data": [{"molecule": "CC[C@H](C)[C@H]1O[C@]2(C=C[C@@H]1C)C[C@@H]1C[C@@H](C/C=C(\\C)[C@@H](O[C@H]3C[C@H](OC)[C@@H](O)[C@H](C)O3)[C@@H](C)/C=C/C=C3\\CO[C@@H]4[C@H](O)C(C)=C[C@@H](C(=O)O1)[C@]34O)O2", "note": "[Avermectin B1a monosaccharide, avermectin B1a monosaccharide]", "values": [{"measurement": "C.E. minimum inhibitory concentrations (MIC)", "setting": "[1]", "result": 2, "unit": "ng/mL"}, {"measurement": "A.S. minimum inhibitory concentrations (MIC)", "setting": "[2]", "result": 2, "unit": "ng/mL"}]}, {"molecule": "CCC(C)C1O[C@]2(C=C[C@@H]1C)C[C@@H]1CC(C/C=C(\\C)[C@@H](OC3C[C@H](OC)[C@@H](OC4C[C@H](OC)[C@@H](O)[C@H](C)O4)[C@H](C)O3)[C@@H](C)/C=C/C=C3\\COC4[C@H](O)C(C)=CC(C(=O)O1)[C@]34O)O2", "note": "(stereo partly drawn) [Avermectin B1a]", "values": [{"measurement": "C.E. minimum inhibitory concentrations (MIC)", "setting": "[1]", "result": 2, "unit": "ng/mL"}, {"measurement": "A.S. minimum inhibitory concentrations (MIC)", "setting": "[2]", "result": 0.5, "unit": "ng/mL"}]}, {"molecule": "CCC(C)C1OC2(C=C[C@@H]1C)CC1CC(C/C=C(\\C)C(O[C@H]3CC(OC)C(=CC(=O)O)C(C)O3)[C@@H](C)/C=C/C=C3\\COC4C(O)C(C)=CC(C(=O)O1)[C@]34O)O2", "note": "(stereo partly drawn) [Compound 6]", "values": [{"measurement": "C.E. minimum inhibitory concentrations (MIC)", "setting": "[1]", "result": 2, "unit": "ng/mL"}, {"measurement": "A.S. minimum inhibitory concentrations (MIC)", "setting": "[2]", "result": 2, "unit": "ng/mL"}]}, {"molecule": "CCC(C)C1OC2(CC[C@@H]1C)CC1CC(C/C=C(\\C)C(O[C@H]3CC(OC)C(=CC#N)C(C)O3)[C@@H](C)/C=C/C=C3\\COC4C(O)C(C)=CC(C(=O)O1)[C@]34O)O2", "note": "(stereo partly drawn) [Compound 22]", "values": [{"measurement": "C.E. minimum inhibitory concentrations (MIC)", "setting": "[1]", "result": 2, "unit": "ng/mL"}, {"measurement": "A.S. minimum inhibitory concentrations (MIC)", "setting": "[2]", "result": 2, "unit": "ng/mL"}]}, {"molecule": "CCC(C)C1OC2(CCC1C)CC1CC(CC=C(C)C(OC3CC(OC)C(O)C(C)O3)C(C)C=CC=C3COC4C(O)C(C)=CC(C(=O)O1)C34O)O2", "note": "(stereo not drawn) [Ivermectin monosaccharide, 22,23-dihydroavermectin B1a monosaccharide]", "values": [{"measurement": "C.E. minimum inhibitory concentrations (MIC)", "setting": "[1]", "result": 2, "unit": "ng/mL"}, {"measurement": "A.S. minimum inhibitory concentrations (MIC)", "setting": "[2]", "result": 2, "unit": "ng/mL"}]}, {"molecule": "Ivermectin", "values": [{"measurement": "C.E. minimum inhibitory concentrations (MIC)", "setting": "[1]", "result": 2, "unit": "ng/mL"}, {"measurement": "A.S. minimum inhibitory concentrations (MIC)", "setting": "[2]", "result": 2, "unit": "ng/mL"}]}]}
